For the assay, the target named is T1, catalytic domain of human PARP14 (residues 1611 to 1801) with NanoLuc tag (Homo sapiens, UniProt Q460N5).
T1 construct: expressed in transfected cells; host or cells: HEK-293T cells (ATCC), plasmid pRTX240 in pcDNA3.1(-)
T1 sequence (Q460N5 1611-1801): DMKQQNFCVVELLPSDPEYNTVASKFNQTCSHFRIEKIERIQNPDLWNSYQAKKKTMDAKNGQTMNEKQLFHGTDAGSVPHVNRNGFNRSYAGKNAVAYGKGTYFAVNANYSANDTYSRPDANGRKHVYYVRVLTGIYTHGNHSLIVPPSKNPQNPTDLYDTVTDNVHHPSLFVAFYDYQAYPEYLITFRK
The assay is described as follows: NanoLuc assay for the degradation of PARP14. The note with it: Assay A; NanoLuc-PARP14 overexpressed in HEK-293T cells; 2 hours at 37 degrees; luminescence. Type of assay: cell-based. As to the method: The catalytic domain of human PARP14 (residues 1611 to 1801, GenBank Accession No. NM_017554) was inserted into the pcDNA3.1(−) vector. The insert also contained a NanoLuc tag on the N terminus of the PARP14 protein.
Degradation of PARP14 protein was assessed using measurement of the NanoLuc tag as proxy for the PARP14 protein. PARP14 with NanoLuc tag was overexpressed in […] cells (ATCC) using the plasmid described in Table 1. Plasmid DNA was diluted in empty vector DNA then added to 1.163 mL of phenol red free OptiMEM (Thermo Fisher). Plasmid DNA concentrations used in each assay described in Table 1. The plasmid DNA was mixed with 78.5 μL of Fugene HD (Promega) and allowed to incubate 5 minutes.
Next, 1.125 mL were added to 10 million 293T cells in DMEM (Thermo Fisher) supplemented with 10% FBS (VWR) and 1× Glutamax (Gibco). The transfection was incubated for 24 hrs at 37 degrees in an incubator supplemented with 5% CO2. The cells were then trypsinized and brought up in phenol red free OptiMEM media. Transfected HEK-293T cells were diluted to […] and then added to assay plate (Corning 3574) using a Multidrop (Thermo Fisher) to add 40 μL per well of the 384 well plate, resulting in 5,000 cells per well. 40 nL of a dose response curve diluted in DMSO of each test compound was added to the cell plate using a Mosquito (TTP Labtech) and the plate was incubated at 37 degrees for 2 hours. Assay plate was brought to room temperature then 20 μL per well of NanoGlo (Promega) was added to the plate. Luminescence was measured on an Envision (Perkin Elmer).
The average DMSO was calculated from 32 wells containing 0.1% DMSO only in columns 12 and 24 of the assay plate. The % of DMSO values were calculated as described below: […]
The % of DMSO values were plotted as a function of compound concentration and the following 4-parameter fit was applied to derive the DC50 values:
where top, bottom, and Hill Coefficient are allowed to float. Y is the % of DMSO and X is the compound concentration.
DC50 data for the Example compounds is provided below in Table 2 (“+” is <0.1 μM; “++” is ≥0.1 μM and <1 μM; and “+++” is ≥1 μM).

For orientation: DC50 means the concentration at which degradation of the target reaches its halfway point.

With `O=C1CCC(N2C(=O)c3cccc(N4CCN(CC5CCN(C(=O)CN6CCC(SCc7nc8cc(OCC9CCOCC9)cc(F)c8c(=O)[nH]7)CC6)CC5)CC4)c3C2=O)C(=O)N1` (centres unmarked) [Example 2, 2-(2,6-dioxopiperidin-3-yl)-4-(4-((1-(2-(4-(((5-fluoro-4-oxo-7-((tetrahydro-2H-pyran-4-yl)methoxy)-3,4-dihydroquinazolin-2-yl)methyl)thio)piperidin-1-yl)acetyl)piperidin-4-yl)methyl)piperazin-1-yl)isoindoline-1,3-dione], the DC50 was below 100 nM.

For `CC(=O)N1CCC(COc2cc(F)c3c(=O)[nH]c(CSC4CCN(C(=O)CNc5ccc6c(c5)C(=O)N(C5CCC(=O)NC5=O)C6=O)CC4)nc3c2)CC1` (centres unmarked) [Example 24, 5-((2-(4-(((7-((1-acetylpiperidin-4-yl)methoxy)-5-fluoro-4-oxo-3,4-dihydroquinazolin-2-yl)methyl)thio)piperidin-1-yl)-2-oxoethyl)amino)-2-(2,6-dioxopiperidin-3-yl)isoindoline-1,3-dione], the DC50 is below 100 nM.

As to `CC(=O)N1CCC(COc2cc(F)c3c(=O)[nH]c(CSC4CCN(CC5CN(c6cccc7c6CN(C6CCC(=O)NC6=O)C7=O)C5)CC4)nc3c2)CC1` (centres unmarked) [Example 41, 3-(4-(3-((4-(((7-((1-acetylpiperidin-4-yl)methoxy)-5-fluoro-4-oxo-3,4-dihydroquinazolin-2-yl)methyl)thio)piperidin-1-yl)methyl)azetidin-1-yl)-1-oxoisoindolin-2-yl)piperidine-2,6-dione], the DC50 was below 100 nM.

For the molecule `CC(=O)N1CCC(COc2cc(F)c3c(=O)[nH]c(CSC4CCN(c5ccc6c(c5)C(=O)N(C5CCC(=O)NC5=O)C6=O)CC4)nc3c2)CC1` (centres unmarked) [Example 30, 5-(4-(((7-((1-acetylpiperidin-4-yl)methoxy)-5-fluoro-4-oxo-3,4-dihydroquinazolin-2-yl)methyl)thio)piperidin-1-yl)-2-(2,6-dioxopiperidin-3-yl)isoindoline-1,3-dione], the half-maximal degradation concentration (DC50) is below 100 nM.

Consider `O=C(CN1CCC(SCc2nc3cc(OCC4CCOCC4)cc(F)c3c(=O)[nH]2)CC1)NCCCCCCNC(=O)c1cccc(N2CCC(=O)NC2=O)c1` [Example 3, 3-(2,4-dioxotetrahydropyrimidin-1(2H)-yl)-N-(6-(2-(4-(((5-fluoro-4-oxo-7-((tetrahydro-2H-pyran-4-yl)methoxy)-3,4-dihydroquinazolin-2-yl)methyl)thio)piperidin-1-yl)acetamido)hexyl)benzamide], for which the DC50 was below 100 nM.

`CC(=O)N1CCC(COc2cc(F)c3c(=O)[nH]c(CSC4CCN(CC#Cc5ccc6c(c5)n(C)c(=O)n6C5CCC(=O)NC5=O)CC4)nc3c2)CC1` (centres unmarked) [Example 36, 3-(5-(3-(4-(((7-((1-acetylpiperidin-4-yl)methoxy)-5-fluoro-4-oxo-3,4-dihydroquinazolin-2-yl)methyl)thio)piperidin-1-yl)prop-1-yn-1-yl)-3-methyl-2-oxo-2,3-dihydro-1H-benzo[d]imidazol-1-yl)piperidine-2,6-dione] yielded a DC50 below 100 nM.

With `O=C(CN1CCC(SCc2nc3cc(OCC4CCOCC4)cc(F)c3c(=O)[nH]2)CC1)NCCCC(=O)N1CCC(c2ccc(NC3CCC(=O)NC3=O)cc2)CC1` (centres unmarked) [Example 8, N-(4-(4-(4-((2,6-dioxopiperidin-3-yl)amino)phenyl)piperidin-1-yl)-4-oxobutyl)-2-(4-(((5-fluoro-4-oxo-7-((tetrahydro-2H-pyran-4-yl)methoxy)-3,4-dihydroquinazolin-2-yl)methyl)thio)piperidin-1-yl)acetamide], the DC50 is below 100 nM.

Regarding `O=C1CCN(c2ccc(C3CCN(CC4CCN(C(=O)CN5CCC(SCc6nc7cc(OCC8CCOCC8)cc(F)c7c(=O)[nH]6)CC5)CC4)CC3)cc2)C(=O)N1` [Example 20, 1-(4-(1-((1-(2-(4-(((5-fluoro-4-oxo-7-((tetrahydro-2H-pyran-4-yl)methoxy)-3,4-dihydroquinazolin-2-yl)methyl)thio)piperidin-1-yl)acetyl)piperidin-4-yl)methyl)piperidin-4-yl)phenyl)dihydropyrimidine-2,4(1H,3H)-dione], the DC50 is below 100 nM.

Molecule `O=C(CN1CCC(SCc2nc3cc(OCC4CCOCC4)cc(F)c3c(=O)[nH]2)CC1)NCCCCCC(=O)N1CCC(c2ccc(NC3CCC(=O)NC3=O)cc2)CC1` (centres unmarked) [Example 6, N-(6-(4-(4-((2,6-dioxopiperidin-3-yl)amino)phenyl)piperidin-1-yl)-6-oxohexyl)-2-(4-(((5-fluoro-4-oxo-7-((tetrahydro-2H-pyran-4-yl)methoxy)-3,4-dihydroquinazolin-2-yl)methyl)thio)piperidin-1-yl)acetamide] yielded a DC50 below 100 nM.

Molecule `CC(=O)N1CCC(COc2cc(F)c3c(=O)[nH]c(CSC4CCN(CC(=O)N5CCC(c6ccc(N7CCN(C8CCC(=O)NC8=O)C7=O)cc6)CC5)CC4)nc3c2)CC1` (centres unmarked) [Example 18, 3-(3-(4-(1-(2-(4-(((7-((1-acetylpiperidin-4-yl)methoxy)-5-fluoro-4-oxo-3,4-dihydroquinazolin-2-yl)methyl)thio)piperidin-1-yl)acetyl)piperidin-4-yl)phenyl)-2-oxoimidazolidin-1-yl)piperidine-2,6-dione] returned a DC50 below 100 nM.

`CC(=O)N1CCC(COc2cc(F)c3c(=O)[nH]c(CSC4CCN(C(=O)C5CCN(CC6CCN(c7cccc8c7C(=O)N(C7CCC(=O)NC7=O)C8=O)CC6)CC5)CC4)nc3c2)CC1` (centres unmarked) [Example 22, 4-(4-((4-(4-(((7-((1-acetylpiperidin-4-yl)methoxy)-5-fluoro-4-oxo-3,4-dihydroquinazolin-2-yl)methyl)thio)piperidine-1-carbonyl)piperidin-1-yl)methyl)piperidin-1-yl)-2-(2,6-dioxopiperidin-3-yl)isoindoline-1,3-dione] came in with a DC50 below 100 nM.

In turn, `CC(=O)N1CCC(COc2cc(F)c3c(=O)[nH]c(CSC4CCN(CC(=O)Nc5ccc6c(c5)C(=O)N(C5CCC(=O)NC5=O)C6=O)CC4)nc3c2)CC1` (centres unmarked) [Example 32, 2-(4-(((7-((1-acetylpiperidin-4-yl)methoxy)-5-fluoro-4-oxo-3,4-dihydroquinazolin-2-yl)methyl)thio)piperidin-1-yl)-N-(2-(2,6-dioxopiperidin-3-yl)-1,3-dioxoisoindolin-5-yl)acetamide] yielded a DC50 below 100 nM.

As for `CC(=O)N1CCC(COc2cc(F)c3c(=O)[nH]c(CSC4CCN(CC5CCN(c6ccc7c(c6)C(=O)N(C6CCC(=O)NC6=O)C7=O)CC5)CC4)nc3c2)CC1` (centres unmarked) [Example 33, 5-(4-((4-(((7-((1-acetylpiperidin-4-yl)methoxy)-5-fluoro-4-oxo-3,4-dihydroquinazolin-2-yl)methyl)thio)piperidin-1-yl)methyl)piperidin-1-yl)-2-(2,6-dioxopiperidin-3-yl)isoindoline-1,3-dione], the DC50 was below 100 nM.

The molecule `CC(=O)N1CCC(COc2cc(F)c3c(=O)[nH]c(CSC4CCN(C(=O)c5ccc(NC6CCC(=O)NC6=O)cc5)CC4)nc3c2)CC1` (centres unmarked) [Example 25, 3-((4-(4-(((7-((1-acetylpiperidin-4-yl)methoxy)-5-fluoro-4-oxo-3,4-dihydroquinazolin-2-yl)methyl)thio)piperidine-1-carbonyl)phenyl)amino)piperidine-2,6-dione] yielded a DC50 below 100 nM.

The record behind these values is patent US20240051946A1, “TARGETED PROTEIN DEGRADATION OF PARP14 FOR USE IN THERAPY” (Ribon Therapeutics, Inc., priority 2022, published 2024).
